Earlier results as cited in patent publication US10238717B2 (Latitude Pharmaceuticals, Inc., priority 2014, dated 2019).
Read-outs that look alike come from different tables or passages of the source.

SMILES | Concentration of sugar in water at saturation (25° C.) | Concentration of sugar in water at saturation (20° C.) | also measured
OC[C@@H](O)[C@@H](O)[C@H](O)[C@H](O)CO [mannitol] |  |  | Concentration of sugar in water at saturation (temperature not given): about 25 % w/v
OC[C@@H](O)[C@@H](O)[C@H](O)[C@@H](O)CO [sorbitol] |  | about 22 % w/v | 
OC[C@H]1O[C@@](CO)(O[C@H]2O[C@H](CO)[C@@H](O)[C@H](O)[C@H]2O)[C@@H](O)[C@@H]1O [sucrose] | about 200 % w/v |  | 

More lines, main results first:

Concentration of sugar in water at saturation (25° C.) | Concentration of sugar in water at saturation (20° C.) | SMILES | also measured
about 21.6 % w/v |  | OC[C@H]1O[C@@H](O[C@H]2[C@H](O)[C@@H](O)C(O)O[C@@H]2CO)[C@H](O)[C@@H](O)[C@H]1O (some centres unmarked) [lactose] | 
 | about 68.9 % w/v | OC[C@H]1O[C@H](O[C@H]2O[C@H](CO)[C@@H](O)[C@H](O)[C@H]2O)[C@H](O)[C@@H](O)[C@@H]1O [trehalose] | 
